# Test: Water solubility at 20° C.
# Type: physicochemical
# Conditions: in water at 20° C.; calcium salts according to b99
row,solubility,Compound
1,24.3 mg/mL,CCC(C)C(=O)C(=O)O (stereo not shown) [Keto isoleucine]
2,11.9 to 12.5 mg/mL,CC(C)CC(=O)C(=O)O [Keto leucine]
3,65 to 70 mg/mL,CC(C)C(=O)C(=O)O [Keto valine]
4,52 to 63 mg/mL,CSCCC(O)C(=O)O (stereo not drawn) [α-hydroxymethionine]

# Reference: US11642314B2, “Mixtures of branched chain keto acids (BCKA) and method for the production of such mixtures” (Evonik Operations GmbH, priority 2018, dated 2023)
